Among the data in patent EP0371438B1, “3,5-Di-tertiary-butyl-4-hydroxyphenyl-1,3,4-thiadiazoles, and oxadiazoles and 3,5-di-tertiary-butyl-4-hydroxiphenyl- 1,2,4-thiadiazoles, -oxadiazoles as antiinflammatory agents” (WARNER-LAMBERT COMPANY, priority 1988, dated 1990) are IC50, ED40 and UD₅₀ values, retold here.

pIC50: −log10 of the molar value.

The target in one data set is T1, 5-lipoxygenase (Rattus norvegicus, UniProt P12527).
T1 construct: host or cells: RBL-1 (rat basophilic leukemia)
T1 sequence (P12527 1-673): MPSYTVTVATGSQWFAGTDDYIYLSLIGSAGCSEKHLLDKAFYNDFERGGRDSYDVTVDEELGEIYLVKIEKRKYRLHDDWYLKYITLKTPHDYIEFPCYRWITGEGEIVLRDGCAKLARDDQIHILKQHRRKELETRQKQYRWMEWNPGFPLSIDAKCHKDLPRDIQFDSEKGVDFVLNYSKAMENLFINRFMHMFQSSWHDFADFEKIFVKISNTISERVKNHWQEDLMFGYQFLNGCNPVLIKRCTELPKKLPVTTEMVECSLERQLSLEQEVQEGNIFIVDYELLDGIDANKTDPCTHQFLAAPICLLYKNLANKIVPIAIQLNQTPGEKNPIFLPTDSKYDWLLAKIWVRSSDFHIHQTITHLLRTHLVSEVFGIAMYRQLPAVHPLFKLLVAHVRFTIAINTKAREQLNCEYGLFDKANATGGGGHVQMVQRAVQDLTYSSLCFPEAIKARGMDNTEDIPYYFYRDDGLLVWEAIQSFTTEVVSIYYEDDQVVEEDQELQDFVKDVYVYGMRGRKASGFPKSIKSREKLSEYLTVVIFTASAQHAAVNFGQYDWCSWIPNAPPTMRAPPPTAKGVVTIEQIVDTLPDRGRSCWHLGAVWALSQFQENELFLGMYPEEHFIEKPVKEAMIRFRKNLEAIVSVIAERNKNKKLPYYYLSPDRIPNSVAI
Kind of data set: ARBL whole cell 5-lipoxygenase assay (LTB4 formation, RIA). The data set is classed as cell-based. The following applies: IC50 for LTB4 inhibition; RBL-1 cells, calcium ionophore A23187. The protocol:
(§1) ARBL/ARBC Whole Cell 5-Lipoxygenase and Cyclooxygenase Assays
(§2) The rat basophilic leukemia cell line (RBL-1) was obtained from the American Type Culture Collection (Rockville, MD).
(§3) Radioimmunoassay (RIA) kits of LTB₄ and [drawing 16] were obtained from Amersham (Arlington Heights, IL) and Seragen (Boston, MA), respectively.
(§4) RBL-1 cells are grown in suspension culture in Eagle's minimum essential medium supplemented with 12% fetal bovine serum at 37°C in an incubator supplied with air-5% carbon dioxide. Cells are harvested by centrifugation. They are washed with cold phosphate buffered saline pH 7.4 (PBS; NaCl, 7.1 g; Na₂HPO₄, 1.15 g; KH₂PO₄, 0.2 g; and KCl, 0.2 g/l). Cells are finally suspended in PBS containing 1.0 mM calcium at a density of 2x10⁶ cells/ml. Cells are incubated with and without test agent (in DMSO) (1% DMSO is without effect on arachidonic acid metabolism) for ten minutes at room temperature. Calcium ionophore A23187 (5 »M) is added and cells are incubated for seven minutes at 37°C. The reaction is stopped by chilling the tubes on ice for ten minutes. Cells are separated by centrifugation and the supernatant is stored at -20°. Aliquots (100 »l) are analyzed for LTB₄ and [drawing 17] using radioimmunoassay kits as provided by the supplier.
(§5) Table 1 contains biochemical data obtained from this whole cell assay as IC₅₀s which are calculated as the amount of test compound causing 50% inhibition of LTB₄ or [drawing 18] formation.

For another data set, the system named is cyclooxygenase. The experiment in a line: ARBC whole cell cyclooxygenase assay (PGF2α formation, RIA). The data set is classed as cell-based, rat. The following applies: IC50 for PGF2α inhibition; RBL-1 cells, calcium ionophore A23187. The protocol:
as §1, §2, §3, §4, §5

The subject of data set [1] is Carrageenan-Induced Rat Foot Paw Edema. Kind of data set: Carrageenan-induced rat foot paw edema-2 (CFE-2) assay. The data set is classed as in vivo. To be noted: 5 h, PO, dosed one hour before carrageenan, edema measured five hours after, compound tested as its sodium salt, read-out: CFE-2 ID₄₀. The protocol:
Carrageenan-Induced Rat Foot Paw Edema-2 (CFE-2) Assay: Protocol
Carrageenan solution (1% w/v) is prepared by dissolving 100 mg carrageenan (Marine Colloidal Div., Springfield, NJ) in 10 ml of sterile saline (0.9%) solution (Travenol). The solution is vortexed for 30 to 45 minutes. Animals are dosed with compound one hour before carrageenan challenge. Foot paw edema is induced by injecting 0.10 ml of the 1% carrageenan subcutaneously into the plantar portion of the right hind paw of each rat under light anesthesia. Initial foot paw volume is measured immediately following carrageenan challenge using mercury plethysmography (Buxco Electronics). Edema is measured five hours after carrageenan. The difference between the five-hour and the initial paw volume is expressed as delta edema. The delta edema for each test group of animals is used to calculate the percent inhibition of edema achieved by the compound at the test dose compared with the vehicle control group. The ID₄₀ (the dose at which swelling is inhibited by 40%) is calculated by probit analysis for the dose at which 40 percent inhibition occurs.
On the technique in general: Carrageenan injected into the paw causes an acute inflammation.

Data set [2] concerns Mycobacterium - Induced Rat Footpad Edema. Kind of data set: Mycobacterium-induced rat footpad edema assay (MFE). The following applies: PO, swelling 72 hours after injection, compound tested as its sodium salt, read-out: MFE ID₄₀. The data set is classed as in vivo. Here is the method:
Mycobacterium - Induced Rat Footpad Edema Assay (MFE): Protocol Mycobacterium butyricum (5 mg/ml) is suspended in paraffin oil by sonication for ten minutes in an ice bath. Footpad edema is induced on Day 0 by injecting 0.1 ml of the Mycobacterium mixture into the left hindpaw of lightly anesthetized rats. Swelling in the injected hindpaw is determined by mercury plethysmography 72 hours after injection. Groups of rats are treated with test compounds (suspended in 0.5% hydroxypropyl methylcellulose with 0.2% Tween-80) or vehicle one hour before Mycobacterium injection and on Days 1 and 2. Inhibition of swelling is determined by comparing the change in hindpaw volume in compound-and vehicle-treated rats. An ID₄₀ (the dose at which swelling is inhibited by 40%) is calculated by probit analysis.

In another data set the test system is gastric ulcers. Kind of data set: Gastric ulcerogenicity (UD). The data set is classed as in vivo, Male outbred Wistar rats. To be noted: PO, dose which produces a 50% occurrence of ulcers in rats; result given @ 200; compound tested as its sodium salt. The protocol: Gastric Ulcerogenicity (UD): Protocol
Male outbred Wistar rats (100-250 gms) are fasted for 24 hours. After fasting, test compounds are administered orally (in 2 ml/kg of 0.5% hydroxypropyl methylcellulose) and the rats are denied access to food and water for six more hours. The rats are then sacrificed with CO₂ so that the stomachs can be removed, opened along the greater curvature, and evaluated for the presence of gastric ulcers. Results are expressed as the percent of rats with gastric ulcers at a given dose or as the UD₅₀ (the dose which causes ulcers in 50% of the rats).

By pIC50 is commonly meant −log10 of the IC50, conventionally taken in molar units. Consider `CC(C)(C)c1cc(-c2nnc(S)s2)cc(C(C)(C)C)c1O` [Example 4, 5-[3,5-Bis(1,1-dimethylethyl)-4-hydroxyphenyl]-1,3,4-thiadiazole-2(3H)-thione], for which the pIC50 was 5.24 on 5-lipoxygenase and 6.07 in the data set with cyclooxygenase. Besides, the ED40 in data set [1] came out at 1.9 mg/kg; in data set [2], 3.2 mg/kg. Further, the UD₅₀ result in the data set with gastric ulcers was “N @ 200 (N is 0% of rats having ulcers at 200 mg.)”.
In the case of `CC(C)(C)c1cc(-c2n[nH]c(=O)o2)cc(C(C)(C)C)c1O` [Example 7, 5-[3,5-Bis(1,1-dimethylethyl)-4-hydroxyphenyl]-1,3,4-oxadiazol-2(3H)-one], the pIC50 at 5-lipoxygenase was 5.85; in the data set on cyclooxygenase it was 5.60.
On to `CC(C)(C)c1cc(-c2n[nH]c(=S)o2)cc(C(C)(C)C)c1O` [Example 8, 5-[3,5-Bis(1,1-dimethylethyl)-4-hydroxyphenyl]-1,3,4-oxadiazole-2(3H)-thione], for which the pIC50 on 5-lipoxygenase was 5.00; with cyclooxygenase, 5.10.
On to `CC(C)(C)c1cc(-c2nnc(N)s2)cc(C(C)(C)C)c1O` [Example 10, 4-(5-Amino-1,3,4-thiadiazol-2-yl)-2,6-bis(1,1-dimethylethyl)phenol], for which the pIC50 on 5-lipoxygenase was 5.85; with cyclooxygenase it was 6.89.
Take `CC(C)(C)c1cc(-c2n[nH]c(=O)[nH]2)cc(C(C)(C)C)c1O` [Example 15, 5-[3,5-Bis(1,1-dimethylethyl)-4-hydroxyphenyl]-2,4-dihydro-3H-1,2,4-triazol-3-one]: the values for the pIC50 at 5-lipoxygenase and in the data set with cyclooxygenase were 5.35 and 5.26, respectively.
